Source: patent US9802937B2, “Substituted pyrazolo{4,3-D}pyrimidines as kinase inhibitors” (ORIGENIS GMBH, priority 2011, dated 2017)

Legend:
LRRK2 = LRRK2 (Homo sapiens, UniProt Q5S007); experiment: LRRK2-LRRK2 G2019S-Assay (LanthaScreen Eu Kinase Binding Assay); conditions: 5 nM LRRK2 or their mutants, 10 nM tracer 236, RT 1 h; read-out: LRRK2 Activities: IC50
Procedure: In the assay LanthaScreen™ Eu Kinase Binding Assay by Invitrogen Corporation (Carlsbad) the effect of invention of a compound on the phosphorylation is determined by measurement of fluorescence intensity emission ratio based on the binding and displacement of a proprietary, Alexa Fluor® 647-labeled, ATP-competitive kinase inhibitor scaffold (kinase tracer) to the kinase of interest. Binding of the tracer to the kinase is detected using a europium-labeled anti-tag antibody, which binds to the kinase of interest. Simultaneous binding of both the tracer and antibody to the kinase results in a high degree of FRET (fluorescence resonance energy transfer) from the europium (Eu) donor fluorophore to the Alexa Fluor® 647 acceptor fluorophore on the kinase tracer. Binding of an inhibitor to the kinase competes for binding with the tracer, resulting in a loss of FRET. The fluorescence intensity ratio is directly proportional to the amount of peptide phosphorylation.
To the wells of an 384 well small volume plate (Greiner, Frickenhausen) are added (i) the compound under test in 5% DMSO/distilled water (5 μl), (ii) 5 μl of the kinase antibody mixture resulting in a final concentration 5 nM LRRK2 or their mutants, 2 nM EU-Anti-GST antibody in 1× kinase buffer A. The reaction was started with addition of (iii) 5 μl resulting in a final concentration of 10 nM tracer 236. The assay plate was incubated at RT for 1 h and fluorescence intensitiy readings were collected using a TECAN M1000 at two wavelengthes of λex 340/λem 615 nm and λex 340/λm 665 nm with a delay time of 100 μs and an integration time of 200 μs after 60 minutes. The emission ratio was calculated by division of the acceptor/tracer emission ([…]) by the antibody/donor emission ([…]). The inhibitor concentration was plotted versus the emission ratio to determine the IC50 using XLFit 5.0 (IDBS, Guildford) to fit to a sigmoidal dose response curve with a variable slope.

SYK kinase = target: T1, SYK kinase (Homo sapiens, UniProt P43405); experiment: SYK Assay (OMNIA KINASE ASSAY, SOX peptide fluorescence); format: biochemical; conditions: apparent Ki calculated from the IC50 using the Cheng-Prusoff equation; 1 mM ATP, 30° C.; read-out: SYK Activities: Ki
T1 construct: purchased Invitrogen, Carlsbad
Summary of the method: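 Apparent Ki values are derived by Cheng-Prusoff from IC50s of sigmoidal fits of reaction rate against compound concentration. Rates come from chelation-enhanced SOX fluorescence (λex 360/λem 485 nm, read every 30 s over 30 min) as the kinase phosphorylates 10 µM Omnia Tyr 7 peptide at 30 °C, with 1 mM ATP and 0.2 mM DTT.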

LRRK2, sequence (Q5S007 970-2527 limits assumed): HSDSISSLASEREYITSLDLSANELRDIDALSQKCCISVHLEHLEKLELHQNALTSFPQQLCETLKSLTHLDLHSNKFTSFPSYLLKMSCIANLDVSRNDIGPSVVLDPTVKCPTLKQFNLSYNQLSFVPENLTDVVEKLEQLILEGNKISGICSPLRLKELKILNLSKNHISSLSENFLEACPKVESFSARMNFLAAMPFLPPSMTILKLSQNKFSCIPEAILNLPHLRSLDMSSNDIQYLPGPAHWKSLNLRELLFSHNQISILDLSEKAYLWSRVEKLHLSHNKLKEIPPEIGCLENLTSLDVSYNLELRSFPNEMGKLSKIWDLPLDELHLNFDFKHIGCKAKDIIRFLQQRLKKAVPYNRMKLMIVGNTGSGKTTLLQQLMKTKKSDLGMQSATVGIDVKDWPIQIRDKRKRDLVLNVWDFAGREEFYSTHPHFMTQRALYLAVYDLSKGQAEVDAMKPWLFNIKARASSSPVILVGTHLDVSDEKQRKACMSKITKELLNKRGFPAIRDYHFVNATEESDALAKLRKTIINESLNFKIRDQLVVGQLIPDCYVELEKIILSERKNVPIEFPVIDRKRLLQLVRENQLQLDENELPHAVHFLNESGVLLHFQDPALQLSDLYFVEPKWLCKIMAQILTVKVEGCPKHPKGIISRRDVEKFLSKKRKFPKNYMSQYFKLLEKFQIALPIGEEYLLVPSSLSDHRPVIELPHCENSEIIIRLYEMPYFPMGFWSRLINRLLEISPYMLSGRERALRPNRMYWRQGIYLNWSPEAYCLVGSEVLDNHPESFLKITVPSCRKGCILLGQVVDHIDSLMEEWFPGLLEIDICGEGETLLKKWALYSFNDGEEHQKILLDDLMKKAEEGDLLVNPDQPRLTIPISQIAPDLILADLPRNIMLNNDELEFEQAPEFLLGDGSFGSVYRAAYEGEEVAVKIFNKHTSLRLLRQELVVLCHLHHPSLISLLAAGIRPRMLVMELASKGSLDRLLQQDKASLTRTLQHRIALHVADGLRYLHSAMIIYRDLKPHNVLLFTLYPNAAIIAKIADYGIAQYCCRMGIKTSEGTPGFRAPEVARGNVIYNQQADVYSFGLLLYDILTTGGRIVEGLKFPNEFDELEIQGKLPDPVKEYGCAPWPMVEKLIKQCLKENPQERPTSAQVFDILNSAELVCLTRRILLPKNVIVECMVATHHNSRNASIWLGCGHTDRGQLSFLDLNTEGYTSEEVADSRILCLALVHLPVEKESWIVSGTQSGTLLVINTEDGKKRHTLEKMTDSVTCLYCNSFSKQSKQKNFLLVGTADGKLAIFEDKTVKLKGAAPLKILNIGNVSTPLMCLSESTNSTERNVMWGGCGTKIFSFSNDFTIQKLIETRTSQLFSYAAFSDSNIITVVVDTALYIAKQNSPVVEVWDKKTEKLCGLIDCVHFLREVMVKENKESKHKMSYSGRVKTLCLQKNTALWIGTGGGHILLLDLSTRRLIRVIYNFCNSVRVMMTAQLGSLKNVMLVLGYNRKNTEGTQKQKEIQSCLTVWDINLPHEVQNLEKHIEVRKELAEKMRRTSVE

For `O=C(c1ccc(Nc2nc(-c3ccsc3)nc3cn[nH]c23)cc1)N1CCCC1` [Example #142, pyrrolidin-1-yl(4-((5-(thiophen-3-yl)-1H-pyrazolo[4,3-d]pyrimidin-7-yl)amino)phenyl)methanone], which IC50 (LRRK2) is on record?
Its IC50 is 100 to 1000 nM.

What about the Ki (SYK kinase) of the same compound?
Its Ki is 10 to 100 nM.

`COc1ccc(Nc2nc(-c3nccs3)nc3cn[nH]c23)cc1OC` [Example #185, N-(3,4-dimethoxyphenyl)-5-(thiazol-2-yl)-1H-pyrazolo[4,3-d]pyrimidin-7-amine] was tested. Which IC50 (LRRK2) did it give?
The IC50 was 10 to 100 nM.

And the Ki (SYK kinase)?
Its Ki is 10 to 100 nM.

With `O=S1(=O)CCN(c2ccc(Nc3nc(-c4cccs4)nc4cn[nH]c34)cc2)CC1` [Example #137, 4-(4-((5-(thiophen-2-yl)-1H-pyrazolo[4,3-d]pyrimidin-7-yl)amino)phenyl)thiomorpholine 1,1-dioxide] as the compound, how does the IC50 (LRRK2) read?
Its IC50 is 10 to 100 nM.

What about the Ki (SYK kinase) of the same compound?
The Ki was under 10 nM.

What does the source list for `COc1ccc(-c2nc(Nc3ccc4c(c3)NCCO4)c3[nH]ncc3n2)cc1` [Example #87, N-(5-(4-methoxyphenyl)-1H-pyrazolo[4,3-d]pyrimidin-7-yl)-3,4-dihydro-2H-benzo[b][1,4]oxazin-6-amine]?
IC50 (LRRK2): 10 to 100 nM; Ki (SYK kinase): < 10 nM

With `COc1ccccc1-c1nc(Nc2ccc(N3CCN(C)CC3)cc2)c2[nH]ncc2n1` [Example #108, 5-(2-methoxyphenyl)-N-(4-(4-methylpiperazin-1-yl)phenyl)-1H-pyrazolo[4,3-d]pyrimidin-7-amine] as the compound, how does the IC50 (LRRK2) read?
Its IC50 is 100 to 1000 nM.

And the Ki (SYK kinase)?
The Ki was 10 to 100 nM.

What does the source list for `O=C1CCc2ccc(Nc3nc(-c4ncco4)nc4cn[nH]c34)cc2N1` [Example #208, 7-((5-(oxazol-2-yl)-1H-pyrazolo[4,3-d]pyrimidin-7-yl)amino)-3,4-dihydroquinolin-2(1H)-one]?
IC50 (LRRK2): 100 to 1000 nM; Ki (SYK kinase): < 10 nM

How did the IC50 (LRRK2) turn out when `COc1ccc(Nc2nc(-c3cccc(S(N)(=O)=O)c3)nc3cn[nH]c23)cc1OC` [Example #183, 3-(7-((3,4-dimethoxyphenyl)amino)-1H-pyrazolo[4,3-d]pyrimidin-5-yl)benzenesulfonamide] was run?
The IC50 was 10 to 100 nM.

And the Ki (SYK kinase)?
The Ki was under 10 nM.

Which IC50 (LRRK2) does the source give for `O=C1COc2ccc(Nc3nc(-c4ccc(N5CCCC5)nc4)nc4cn[nH]c34)cc2N1` [Example #47, 6-((5-(6-(pyrrolidin-1-yl)pyridin-3-yl)-1H-pyrazolo[4,3-d]pyrimidin-7-yl)amino)-2H-benzo[b][1,4]oxazin-3(4H)-one] here?
The IC50 was 100 to 1000 nM.

And the Ki (SYK kinase)?
Its Ki is 10 to 100 nM.

With `CN1CCC(c2nc(Nc3ccc4cn[nH]c4c3)c3[nH]ncc3n2)CC1` [Example #27, N-(1H-indazol-6-yl)-5-(1-methylpiperidin-4-yl)-1H-pyrazolo[4,3-d]pyrimidin-7-amine] as the compound, how does the IC50 (LRRK2) read?
Its IC50 is 100 to 1000 nM.

And the Ki (SYK kinase)?
The Ki was 10 to 100 nM.

Which IC50 (LRRK2) does the source give for `COc1ccc(-c2nc(Nc3ccc4c(c3)NC(=O)CO4)c3[nH]ncc3n2)cc1` [Example #171, 6-((5-(4-methoxyphenyl)-1H-pyrazolo[4,3-d]pyrimidin-7-yl)amino)-2H-benzo[b][1,4]oxazin-3(4H)-one] here?
Its IC50 is 100 to 1000 nM.

What about the Ki (SYK kinase) of the same compound?
Its Ki is 10 to 100 nM.

Which results are given for `COc1ccc(Nc2nc(-c3cocn3)nc3cn[nH]c23)cc1OC` [Example #202, N-(3,4-dimethoxyphenyl)-5-(oxazol-4-yl)-1H-pyrazolo[4,3-d]pyrimidin-7-amine]?
IC50 (LRRK2): 100 to 1000 nM; Ki (SYK kinase): 10 to 100 nM

What does the source list for `COc1ccc(-c2nc(Nc3ccc4[nH]ncc4c3)c3[nH]ncc3n2)cc1OC` [Example #40, 5-(3,4-dimethoxyphenyl)-N-(1H-indazol-5-yl)-1H-pyrazolo[4,3-d]pyrimidin-7-amine]?
IC50 (LRRK2): 100 to 1000 nM; Ki (SYK kinase): 10 to 100 nM

Which IC50 (LRRK2) does the source give for `CN1CCN(c2ccc(Nc3nc(-c4cnc[nH]4)nc4cn[nH]c34)cc2)CC1` [Example #140, 5-(1H-imidazol-5-yl)-N-(4-(4-methylpiperazin-1-yl)phenyl)-1H-pyrazolo[4,3-d]pyrimidin-7-amine] here?
Its IC50 is 100 to 1000 nM.

What about the Ki (SYK kinase) of the same compound?
The Ki was 10 to 100 nM.

For `O=C1CSc2ccc(Nc3nc(-c4ccsc4)nc4cn[nH]c34)cc2N1` [Example #158, 6-((5-(thiophen-3-yl)-1H-pyrazolo[4,3-d]pyrimidin-7-yl)amino)-2H-benzo[b][1,4]thiazin-3(4H)-one], which IC50 (LRRK2) is on record?
The IC50 was 10 to 100 nM.

What about the Ki (SYK kinase) of the same compound?
Its Ki is 10 to 100 nM.

What does the source list for `COc1ccc(-c2nc(Nc3ccc4c(c3)NC(=O)CCC4)c3[nH]ncc3n2)cc1` [Example #164, 8-((5-(4-methoxyphenyl)-1H-pyrazolo[4,3-d]pyrimidin-7-yl)amino)-4,5-dihydro-1H-benzo[b]azepin-2(3H)-one]?
IC50 (LRRK2): 10 to 100 nM; Ki (SYK kinase): < 10 nM

How did the IC50 (LRRK2) turn out when `COc1ccc(Nc2nc(-c3ncco3)nc3cn[nH]c23)cc1OC` [Example #205, N-(3,4-dimethoxyphenyl)-5-(oxazol-2-yl)-1H-pyrazolo[4,3-d]pyrimidin-7-amine] was run?
The IC50 was 100 to 1000 nM.

And the Ki (SYK kinase)?
The Ki was under 10 nM.

Which IC50 (LRRK2) does the source give for `CC1(C)CNc2cc(Nc3nc(-c4cccs4)nc4cn[nH]c34)ccc2S1` [Example #173, 2,2-dimethyl-N-(5-(thiophen-2-yl)-1H-pyrazolo[4,3-d]pyrimidin-7-yl)-3,4-dihydro-2H-benzo[b][1,4]thiazin-6-amine] here?
Its IC50 is 100 to 1000 nM.

What about the Ki (SYK kinase) of the same compound?
Its Ki is 10 to 100 nM.

Which IC50 (LRRK2) does the source give for `COc1ccc(Nc2nc(-c3cccc(-c4nn[nH]n4)c3)nc3cn[nH]c23)cc1OC` [Example #193, 5-(3-(2H-tetrazol-5-yl)phenyl)-N-(3,4-dimethoxyphenyl)-1H-pyrazolo[4,3-d]pyrimidin-7-amine] here?
Its IC50 is 100 to 1000 nM.

What about the Ki (SYK kinase) of the same compound?
Its Ki is under 10 nM.

What does the source list for `Fc1ccc(-c2nc(Nc3ccc(N4CCOCC4)cc3)c3[nH]ncc3n2)cc1` [Example #271, 5-(4-fluorophenyl)-N-(4-morpholinophenyl)-1H-pyrazolo[4,3-d]pyrimidin-7-amine]?
IC50 (LRRK2): 100 to 1000 nM; Ki (SYK kinase): 10 to 100 nM

Which results are given for `O=C(O)c1ccc(Nc2nc(-c3ccccc3)nc3cn[nH]c23)cc1` [Example #10, 4-((5-phenyl-1H-pyrazolo[4,3-d]pyrimidin-7-yl)amino)benzoic-acid]?
IC50 (LRRK2): 100 to 1000 nM; Ki (SYK kinase): < 10 nM

For `c1cc(N2CCOCC2)ccc1Nc1nc(-c2ccc3c(c2)NCCO3)nc2cn[nH]c12` [Example #301, 5-(3,4-dihydro-2H-benzo[b][1,4]oxazin-6-yl)-N-(4-morpholinophenyl)-1H-pyrazolo[4,3-d]pyrimidin-7-amine], which IC50 (LRRK2) is on record?
The IC50 was 100 to 1000 nM.

And the Ki (SYK kinase)?
Its Ki is 10 to 100 nM.

Which results are given for `COc1ccc(Nc2nc(-c3ccc4c(c3)NCCO4)nc3cn[nH]c23)cc1OC` [Example #300, 5-(3,4-dihydro-2H-benzo[b][1,4]oxazin-6-yl)-N-(3,4-dimethoxyphenyl)-1H-pyrazolo[4,3-d]pyrimidin-7-amine]?
IC50 (LRRK2): 100 to 1000 nM; Ki (SYK kinase): < 10 nM

How did the IC50 (LRRK2) turn out when `c1cc(-c2nc(Nc3cc(C4CC4)[nH]n3)c3[nH]ncc3n2)cs1` [Example #77, N-(5-cyclopropyl-1H-pyrazol-3-yl)-5-(thiophen-3-yl)-1H-pyrazolo[4,3-d]pyrimidin-7-amine] was run?
The IC50 was 10 to 100 nM.

What about the Ki (SYK kinase) of the same compound?
The Ki was 10 to 100 nM.

With `CN1CCN(C2CCN(c3ccc(Nc4nc(-c5ccccc5F)nc5cn[nH]c45)cc3)CC2)CC1` [Example #278, 5-(2-fluorophenyl)-N-(4-(4-(4-methylpiperazin-1-yl)piperidin-1-yl)phenyl)-1H-pyrazolo[4,3-d]pyrimidin-7-amine] as the compound, how does the IC50 (LRRK2) read?
The IC50 was 100 to 1000 nM.

And the Ki (SYK kinase)?
Its Ki is under 10 nM.

`O=C1CCc2ccc(Nc3nc(-c4cnc5cc[nH]c5c4)nc4cn[nH]c34)cc2N1` [Example #257, 7-((5-(1H-pyrrolo[3,2-b]pyridin-6-yl)-1H-pyrazolo[4,3-d]pyrimidin-7-yl)amino)-3,4-dihydroquinolin-2(1H)-one] was tested. Which IC50 (LRRK2) did it give?
Its IC50 is 100 to 1000 nM.

What about the Ki (SYK kinase) of the same compound?
The Ki was under 10 nM.

What does the source list for `COc1cccc(-c2nc(Nc3ccc(N(C)C)cc3)c3[nH]ncc3n2)c1` [Example #63, N1-(5-(3-methoxyphenyl)-1H-pyrazolo[4,3-d]pyrimidin-7-yl)-N4,N4-dimethylbenzene-1,4-diamine]?
IC50 (LRRK2): 100 to 1000 nM; Ki (SYK kinase): < 10 nM

What does the source list for `O=C1CCc2ccc(Nc3nc(-c4cocn4)nc4cn[nH]c34)cc2N1` [Example #207, 7-((5-(oxazol-4-yl)-1H-pyrazolo[4,3-d]pyrimidin-7-yl)amino)-3,4-dihydroquinolin-2(1H)-one]?
IC50 (LRRK2): 100 to 1000 nM; Ki (SYK kinase): < 10 nM

`CN1CCN(c2ccc(Nc3nc(-c4cscn4)nc4cn[nH]c34)cc2)CC1` [Example #197, N-(4-(4-methylpiperazin-1-yl)phenyl)-5-(thiazol-4-yl)-1H-pyrazolo[4,3-d]pyrimidin-7-amine] was tested. Which IC50 (LRRK2) did it give?
The IC50 was 100 to 1000 nM.

What about the Ki (SYK kinase) of the same compound?
Its Ki is under 10 nM.

Which IC50 (LRRK2) does the source give for `COc1ccc(-c2nc(Nc3ccc(N4CCOCC4)cc3)c3[nH]ncc3n2)cc1OC` [Example #25, 5-(3,4-dimethoxyphenyl)-N-(4-morpholinophenyl)-1H-pyrazolo[4,3-d]pyrimidin-7-amine] here?
The IC50 was 100 to 1000 nM.

What about the Ki (SYK kinase) of the same compound?
Its Ki is under 10 nM.
